Assay results: patent US20240108645A1, “SENESCENCE AND SENESCENCE ASSOCIATED SECRETORY PHENOTYPE” (Metro Biotech NSW Pty Ltd, priority 2013, published 2024)
Entries after “also recorded” stand apart in the source; their conditions may differ.

Assays:
[1] = system: C2C12 myoblasts; assay: SA-β-Gal activity in C2C12 myoblasts by flow cytometry with C12FDG; format: cell-based
Experimental: To determine the ability of NAD^+ agonists to prevent or reduce senescence associated with treatment with corticoids, C2C12 myoblasts were assayed for SA-β-Gal activity following contact with vehicle, NMN, apigenin, dexamethasone, dexamethasone and NMN, and dexamethasone and apigenin. SA-β-Gal activity was determined using the fluorogenic substrate, C12FDG, by flow cytometry (protocol of Debacq-Chainiaux et al. Nature Protocols 2009). FIG. 7A: […] FIGS. 7B and 7C: […] SA-β-Gal activity was decreased with NMN and/or apigenin. All data are presented as the mean value. * p<0.05, **** p<0.0001, using two-way ANOVA multiple comparisons test.

[2] = Blood glucose and free water (echoMRI) in dexamethasone treated rats; format: in vivo, Sprague-Dawley rats; settings: one day after injection
Experimental: To study the effects of NAD^+ agonists on senescence associated with treatment with corticoids, 250 g Sprague-Dawley rats were administered daily intraperitoneal injections of the following formulations for 3 days: • 1. Vehicle: saline • 2. Dexamethasone: 0.8 mg/kg of animal dexamethasone sodium phosphate • 3. Dexamethasone+NMN: 0.8 mg/kg body weight dexamethasone sodium phosphate and 1.5 g/kg body weight NMN.
After 3 days, blood glucose was determined.
Free water was assessed by echMRI one day after injection of the above formulations.

[3] = system: 3T3-L1 adipocytes; assay: Intracellular lipid content (oil red o) of 3T3-L1 adipocytes treated with antiretroviral agents; settings: for intracellular lipid content (oil red o, absorbance at 544 nm): 24 hr
Experimental: The ability of NAD^+ agonists to reduce or prevent lipodystrophy associated with anti-retroviral compounds was assessed. The ability of NMN to prevent or reduce lipodystrophy was tested by determining the lipid content of 3T3-L1 adipocytes treated with a vehicle, or the antiretroviral agent stavudine, either alone or in combination with NMN.
3T3-L1 adipocytes were treated for 24 hr with the HIV antiretroviral compound stavudine (10 nM) in the presence or absence of NMN (1 mM). Intracellular lipid content was assessed using oil red o staining, which was quantified by reading absorbance at 544 nm. Error bars: SD.
In order to further test the ability of NAD^+ agonists to reduce lipodystrophy associated with antiretroviral agents, 3T3-L1 adipocytes were treated for 24 hr with various antiretroviral compounds (30 μM) in the presence or absence of NMN (1 mM) or apigenin (25 μM). Intracellular lipid content was assessed using oil red o staining, which was quantified by reading absorbance at 544 nm.

[4] = system: C2C12 myoblasts; assay: SA-β-Gal staining of C2C12 myoblasts incubated with various agents; format: cell-based
Experimental: The ability of NAD^+ agonists to reduce senescence associated with various agents was tested by inclubating C2C12 myoblasts with various agents in the presence or absence of NMN or apigenin, and the cells subsequent stained as mentioned above for SA-β-Gal activity. The following agents were tested: [table]

[5] = system: 3T3-L1 adipocytes; assay: SA-β-gal chromogenic staining of dexamethasone treated 3T3-L1 adipocytes; format: cell-based; settings: 5 days; dexamethasone 1, 0.5, 0.1 or 0.01 mg/ml; 1 mM NMN, 25 mM apigenin
Experimental: To further investigate the effects of NAD^+ agonists on dexamethasone induced senescence, 3T3-L1 adipocytes were treated for 5 days with ethanol (control), or 1 mg/ml, 0.5 mg/ml, 0.1 mg/ml or 0.01 mg/ml of dexamethasone in combination with either DMSA, 1 mM NMN, 25 mM apigenin, or 1 mM NMN and 25 mM apigenin and subjected to senescence associated beta-galactosidase staining according to the chromogenic protocol of Debacq-Chainiaux F et al Nature Protocols 2009.

[6] = system: p16^INK4a; assay: Imiquimod-induced skin senescence in p16^LUC mice, bioluminescence imaging; format: in vivo, SKH1 hairless p16^LUC mice
Excerpt: In order to study the effects of NAD^+ agonists on cellular senescence associated with the skin, which is associated with inflammation, senescence was induced in a luciferase knockin (p16^LUC) mouse (Burd et al. (2013) Cell 152: 340-351) using topical application of Imiquimod. Imiquimod (IMQ) is an immune modulator topically applied for skin conditions such as melanoma and genital warts. The side effect of IMQ is severe, painful inflammation and aging of the skin.
P16^LUC mice contain the firefly luciferase cDNA inserted into the translational start site of the endogenous p16^INK4a gene. Conditions which induce expression of the p16^INK4a gene, and therefore induce cellular senescence, also induce expression of firefly luciferase in p16^LUC mice (Burd et al. […] Cell 152:340-351; Sorrentino et al. (2014) The Journal of Clinical Investigation, 124(1): 169-351).
The following formulations were prepared: • 1. Cream carrier (containing no IMQ) (control or ctrl); • 2. IMQ cream (containing 5% IMQ) mixed with 10% water (IMQ); and • 3. IMQ cream (containing 5% IMQ) mixed with […] NMN (equating to 5% NMN) (IMQ+NMN).
Each of 1, 2 and 3 were applied daily to the rump of SKH1 hairless p16^LUC mice for 4 days. The animals were subjected to bioluminescence imaging as a readout for senescence. Areas of fluorescence are indicated as darkened areas in FIG. 4.

[7] = system: p16^INK4A; assay: Doxorubicin-induced senescence in p16^LUC mice, bioluminescence/CT imaging; format: in vivo; settings: doxorubicin alone 1 mg/kg i.p.; imaging 24 hours after treatment
Experimental: Vehicle control: 10% DMSO in PBS administered intraperitoneally; • 2. Apigenin: administered in diet at 500 mg/kg of food in addition to vehicle control administered i.p.; • 3. […] Apigenin administered in chow diet at 500 mg/kg of food, and doxorubicin administered at 1 mg/kg body weight i.p. Apigenin was administered 4 days prior to administration of doxorubicin. The animals were subjected to bioluminescence/CT imaging (Spectrum-CT instrument, PerkinElmer) as a readout for senescence 24 hours after treatment was completed. Areas of luminescence are shown as lightened areas in FIG. 5 and are indicated by an arrow.

[8] = Body weight after doxorubicin; format: in vivo, male C57BL6 mice; settings: doxorubicin 10 mg/kg i.p. single dose at day 8
Experimental: Vehicle control: 10% DMSO in PBS administered intraperitoneally; • 2. Apigenin: administered in diet at 500 mg/kg of diet, in addition to vehicle control administered i.p.; • 3. […] Apigenin administered in diet of 500 mg/kg of diet, and doxorubicin administered at 10 mg/kg body weight i.p. Apigenin was administered 8 days prior to administration of a single dose of doxorubicin. Body weight was assessed during the course of the experiment as a read-out of general health and malaise, the results of which are shown in FIG. 11.

[9] = target: T1, CD38 (Homo sapiens, UniProt P28907); settings: in vitro; Esande et al. (2013) Diabetes; cited from earlier work
T1 sequence (P28907 1-300): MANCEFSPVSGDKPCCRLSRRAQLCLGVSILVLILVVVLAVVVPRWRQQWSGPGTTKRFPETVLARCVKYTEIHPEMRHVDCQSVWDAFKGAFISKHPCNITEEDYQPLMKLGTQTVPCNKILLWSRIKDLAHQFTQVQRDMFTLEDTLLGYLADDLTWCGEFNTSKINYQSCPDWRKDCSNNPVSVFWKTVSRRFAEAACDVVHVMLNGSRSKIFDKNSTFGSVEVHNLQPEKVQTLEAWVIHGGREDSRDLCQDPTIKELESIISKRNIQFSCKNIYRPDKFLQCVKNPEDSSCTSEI

Which “SA-β-Gal activity (FIG. 7A)” value ([1]; 48 hours, NMN 1 mM, both ethanol vehicle and dexamethasone (0.1 μg/ml) treated groups) does the source give for `NC(=O)c1ccc[n+]([C@@H]2O[C@H](COP(=O)([O-])O)[C@@H](O)[C@H]2O)c1` [NMN, nicotinamide mononucleotide] here?
The value was “significantly reduced SA-β-Gal activity”.

What about the “SA-β-Gal activity (FIG. 7B)” value ([1]; 72 hours, dexamethasone sodium phosphate 250 nM or PBS, NMN 1 mM or apigenin 25 uM) of the same compound?
Its value is “decreased”.

What about the “SA-β-Gal activity (FIG. 7C)” value ([1]; 96 hours, dexamethasone sodium phosphate 250 nM or PBS, NMN 1 mM or apigenin 25 uM) of the same compound?
The value was “decreased”.

What about the “percentage of cells which exhibited SA-β-Gal activity following treatment with dexamethasone” value ([1]; summary of FIGS. 7A-7C) of the same compound?
Its value is “reduced the percentage of cells which exhibited SA-β-Gal activity”.

What about the “free water (echoMRI)” value ([2]; dexamethasone sodium phosphate 0.8 mg/kg plus NMN 1.5 g/kg i.p., vs dexamethasone) of the same compound?
The value was “reversed this effect”.

And the “lipodystrophy (intracellular lipid content, oil red o)” value ([3]; NMN 1 mM, cells treated 24 hr with 30 μM AZT, 3TC, stavudine, Efavirenz, Lopinavir, Ritonavir, Tipranavir)?
The value was “reduced lipodystrophy”.

What about the “intracellular lipid content (oil red o, absorbance at 544 nm)” value ([3]; stavudine 10 nM and NMN 1 mM, vs NMN and vehicle) of the same compound?
The value was “no reduction in lipid content”.

What about the “extent of senescence (proportion of cells stained blue, SA-β-Gal activity)” value ([4]; agents of the table of b212 with vs without apigenin or NMN) of the same compound?
Its value is “reduce the extent of senescence induced by the agents tested”.

What about the “extent to which the cells undergo senescence” value ([4]; co-administration with AZT, 3TC, zalcitabine, efavirenze, lopinavir, ritonavir, nevirapine, tipranavir, tenofovir, invirase vs agent alone) of the same compound?
The value was “reduces the extent to which the cells undergo senescence”.

What about the “extent to which the cells undergo senescence” value ([4]; co-administration with PPARγ agonist rosiglitazone vs rosiglitazone alone) of the same compound?
The value was “reduces the extent to which the cells undergo senescence”.

And the “extent to which the cells undergo senescence” value ([4]; co-administration with antiprotozoal agent quinacrine vs quinacrine alone)?
The value was “reduces the extent to which the cells undergo senescence”.

What about the “extent to which the cells undergo senescence” value ([4]; co-administration with each of the chemotherapeutic agents listed in b109 vs agent alone) of the same compound?
Its value is “reduces the extent to which the cells undergo senescence”.

And the “extent to which the cells undergo senescence” value ([4]; co-administration with xanthine oxidase inhibitor allopurinol vs allopurinol alone)?
The value was “reduces the extent to which the cells undergo senescence”.

And the “extent to which the cells undergo senescence” value ([4]; co-administration with zolendronate vs zolendronate alone)?
Its value is “reduces the extent to which the cells undergo senescence”.

And the “SA-β-gal staining (blue cells), dexamethasone induced senescence” value [5]?
Its value is “reduced SA-β-gal staining; also recorded: reduce or prevent senescence induced by dexamethasone”.

What about the “erythema, scaling and redness of skin” value ([6]; IMQ and NMN topical vs IMQ) of the same compound?
Its value is “less erythema, scaling and redness”.

And the “p16^IN14a induction (bioluminescence)” value ([6]; IMQ cream (5% IMQ) mixed with NMN (5% NMN), topical daily for 4 days, vs IMQ)?
The value was “little or no signs of p16^IN14a induction”.

Which “intracellular lipid content (oil red o, absorbance at 544 nm)” value ([3]; stavudine 10 nM alone, vs vehicle) does the source give for `Cc1cn([C@H]2C=C[C@@H](CO)O2)c(=O)[nH]c1=O` [stavudine, 2′,3′-didehydro-2′,3′-dideoxythymidine, reference compound] here?
Its value is “reduction in lipid content”.

For `COc1cccc2c1C(=O)c1c(O)c3c(c(O)c1C2=O)C[C@@](O)(C(=O)CO)C[C@@H]3O[C@H]1C[C@H](N)[C@H](O)[C@H](C)O1` [doxorubicin, reference compound], which “p16^INK4A induction (bioluminescence)” value [7] is on record?
The value was “large areas of bioluminescence”.

And the body weight [8]?
Its body weight is “permanent loss of body weight for at least 40 days”.

Which “p16^IN14a induction (bioluminescence)” value ([6]; IMQ cream (5% IMQ) alone, applied daily to rump for 4 days) does the source give for `CC(C)Cn1cnc2c(N)nc3ccccc3c21` [IMQ, Imiquimod, reference compound] here?
The value was “showed areas of p16^IN14a induction”.

For `O=c1c(O)c(-c2ccc(O)c(O)c2)oc2cc(O)cc(O)c12` [quercetin, 2-(3,4-dihydroxyphenyl)-3,5,7-trihydroxy-4H-chromen-4-one, reference compound], which “inhibition of CD38 activity” value [9] is on record?
The value was “inhibitors of CD38 activity in vitro”.

With `C[C@@H]1C[C@H]2[C@@H]3CCC4=CC(=O)C=C[C@]4(C)[C@@]3(F)[C@@H](O)C[C@]2(C)[C@@]1(O)C(=O)CO` [dexamethasone, reference compound] as the compound, how does the “free water (echoMRI)” value ([2]; dexamethasone sodium phosphate 0.8 mg/kg i.p.) read?
The value was “significantly reduced the amount of free water”.
